Source: article PMC10388327, “Dual Piperidine-Based Histamine H3 and Sigma-1 Receptor Ligands in the Treatment of Nociceptive and Neuropathic Pain” (Journal of Medicinal Chemistry, 2023)
Where a name gives a salt, the structure may show the parent alone.

Assays:
mice [1] = assay: capsaicin-induced nociception; format: in vivo
Procedure: The procedure used was similar to that described previously.[88],[89] The pain reaction was induced by the injection of 20 μL of capsaicin solution (1.6 μg/paw made in PBS) under the skin of the dorsal surface of the mice right hindpaw. The animals were observed individually in an observation chamber for 5 min following capsaicin injection. The amount of time spent licking the injected paw was recorded by means of the stopwatch and was considered as indicative of pain. The animals were pretreated with the vehicle (10 mL/kg, negative control) and investigated compound (10, 15, and 30 mg/kg).

mice [2] = assay: formalin test; format: in vivo; details: Mus musculus, ip
Description: The formalin test is one of the most useful screening models for testing potentially clinically relevant antinociceptive molecules because of its ease of administration, standardization, and validation with reference drugs.[50] The subcutaneous injection of formalin results in a focal injury that stimulates and then damages sensory endings. Two distinct phases of nociceptive response are associated with the immediate activation of nociceptors and sensitization of spinal reflex circuits during phase I and II responses, respectively.[51]
The procedure used was essentially the same as that described previously.[86],[87] Briefly, 20 μL of 1.5% formalin solution was injected intraplantarly (i.pl.) into the mice right hind paw using a 26-gauge needle. […] The total time (in seconds) spent on licking the injected paw during periods of 0–5 min (early phase, neurogenic) and 15–30 min (late phase, inflammatory) was measured and was considered as an indicator of nociceptive behavior. Before formalin injection, different groups of mice were treated i.p. with the vehicle (10 mL/kg, negative control) and the varying doses of 12 (5, 10, 15, and 30 mg/kg).

CCI-exposed mice = assay: chronic constriction injury (CCI) of the sciatic nerve, von Frey test; format: in vivo, male albino Swiss CD-1 mice
Procedure: Behavioral assessment of 12 was performed 14 days after the sciatic nerve injury. Mice were randomly assigned to four treatment groups: vehicle-treated (i.p.) and 12-treated (5, 10, and 15 mg/kg, i.p.). Baseline measurements (basal) for all tests were performed before compound injections, and the results are presented as percentages of the maximal possible effect (% MPE). We observed a significant effect of the tested compound in the von Frey test at all tested time points (30 min: F(3, 26) = 12.38, p < 0,0001; 90 min: F(3, 26) = 12.65, p < 0.0001; 180 min: F(3, 26) = 6.464, p = 0.0020). […] We also observed a significant effect of treatment on the contralateral paw 90 min after injection (F(3, 26) = 5.741, p = 0.0037).
The model of chronic constriction injury (CCI) to the sciatic nerve was established according to Bennett and Xie.[94] The surgical method was performed under isoflurate anesthesia (2% isoflurane in 100% oxygen with a flow of 1.5 L/min).[95] Below the right hipbone, a small incision was performed, and three ligatures (4/0 silk) around the sciatic nerve were made (with 1 mm spacing) until a brief twitch in the respective hind limb was observed. All mice that underwent the CCI procedure developed hypersensitivity to mechanical and thermal stimuli. Behavioral tests were performed at day 14 after injury. Compound 12 was dissolved in 10% DMSO/10% (2-hydroxypropyl)-β-cyclodextrin/water and administered i.p. at doses 5, 10, and 15 mg/kg (injection volume 10 mL/kg of body weight). The control group received the vehicle (10% DMSO/10% (2-hydroxypropyl)-β-cyclodextrin/water).
Behavioral experiments were performed between 8:00 a.m. and 2:00 p.m. Across the experiments, we compared vehicle-treated mice with 12-treated animals. Experiments were performed 30, 90, and 180 min (von Frey test); 35, 95, and 185 min (cold plate test); and 40, 100, and 190 min (tail flick test) after the vehicle or 12 administration.
The von Frey test was used to measure mechanical hypersensitivity as described in a previous publication.[95] The animals were placed in cages with a wire net floor. The reaction (paw withdrawal, shaking, or licking) of the ipsilateral (Figure 15) and contralateral (Figure S33) paw of CCI-exposed mice to the mechanical stimulator (calibrated nylon monofilaments (0.6–6 g; Stoelting)) in serial increments was observed.

[3] = target: T1, human histamine H4 receptor (hH4R) (Homo sapiens, UniProt Q9H3N8); assay: hH4R radioligand binding ([3H]UR-PI294); details: read-out: hH4R (Ki [nM] x̅ [CI 95%]); HEK293T cells; n = 3, triplicate
T1 construct: SP (signal peptide) (N); FLAG (N); expressed in transfected cells
T1 sequence (Q9H3N8 whole entry): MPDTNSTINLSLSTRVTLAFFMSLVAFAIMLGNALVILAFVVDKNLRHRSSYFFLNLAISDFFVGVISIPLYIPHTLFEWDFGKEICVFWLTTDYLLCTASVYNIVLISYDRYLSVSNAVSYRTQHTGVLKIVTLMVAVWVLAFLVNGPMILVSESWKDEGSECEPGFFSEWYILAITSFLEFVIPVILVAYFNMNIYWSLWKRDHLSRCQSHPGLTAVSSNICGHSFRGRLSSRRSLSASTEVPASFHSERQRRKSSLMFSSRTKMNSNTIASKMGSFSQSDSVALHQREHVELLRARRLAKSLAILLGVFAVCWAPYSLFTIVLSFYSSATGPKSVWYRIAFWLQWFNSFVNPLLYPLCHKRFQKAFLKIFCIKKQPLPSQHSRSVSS
Procedure: To check the selectivity profile of our lead structures, radioligand binding studies at other histamine receptor subtypes were carried out. […] Obtained results clearly indicate the high selectivity of the tested derivatives toward human H3R (Table 3).
Compounds (as oxalate salts) were tested in H3R in vitro binding studies using the methods described previously.[21]−[23] […] Radioligand binding experiments at the H1R, H2R, and H4R were performed as previously described in Rosier et al.[65] and Bartole et al.[66] […] Data represent mean values ± CI from three independent experiments, each performed in triplicate. The normalized competition binding curves were then fitted with a four-parameter logistic fit yielding IC50 values using the Prism 8.4.3 software (GraphPad, San Diego, CA). The Ki values were estimated from the Cheng–Prusoff equation.[69]

[4] = parallel artificial membrane permeability assay (PAMPA); format: in vitro ADME; details: 100 μM in PBS pH 7.4, RT, read-out: Pe (permeability coefficient)
mice [5] = assay: motor coordination in the rotarod test; format: in vivo; details: 15 mg/kg i.p.; 6, 18 and 24 rpm
Description: The neurotoxicity of the new compounds can result in impaired motor functions of the experimental animals, which may subsequently cause false interpretation of the results of in vivo tests. Understandably, neurotoxicity is also the frequent reason for eliminating the tested compound from further studies. To minimize that risk, we investigated the influence of our lead structures on motor coordination in the rotarod test, which is the classical test used for assessing motor coordination and balance in rodents. It provides a quick and simple estimation of neuromuscular coordination. […] The time spent on the rotarod apparatus was 60 s for each control mouse.
The test was carried out on the semiautomatic rotarod apparatus (Rotarod apparatus Panlab/Harvard Apparatus, LE 8200, Spain) according to the method previously described in the literature.[85] The mice were trained for 3 days on the rod rotating at a constant speed of 18 rotations per minute (rpm). During each training session, the animals were placed on the rod for 3 min with an unlimited number of trials. On the test day (24 h after the final training trial), 30 min before the rotarod test, the mice were pretreated (i.p.) with the test compound (15 mg/kg). Then, the animals were tested on the rotarod revolving at 6, 18, and then 24 rpm. Motor impairments, defined as the inability to remain on the rotating rod for 1 min, were measured at each speed.

For `N#Cc1ccc(-c2ccc(OCCCN3CCC(c4ccncc4)CC3)cc2)cc1` [Compound 12, 4′-(3-(4-(Pyridin-4-yl)piperidin-1-yl)propoxy)-[1,1′-biphenyl]-4-carbonitrile Oxalate], the “effect on nociceptive response in capsaicin test” value (mice [1]; 10, 15 and 30 mg/kg) was “significantly decreased the paw licking or biting behavior”, the ED50 (mice [1]; Mus musculus, 5 min, 5 min after intraplantar capsaicin, read-out: ED50, capsaicin test) was 10.3 mg/kg and the ED50 (mice [2]; 0–5 min after formalin, read-out: ED50, formalin test phase I (acute phase)) was 6.17 mg/kg. The ED50 (mice [2]; 15–30 min after formalin, read-out: ED50, formalin test phase II (late phase)) was 12.3 mg/kg, the “effect on contralateral paw, von Frey test” value (from here on “effect on contralateral paw”) (CCI-exposed mice; 15 mg/kg, 30 and 180 min) was “reduced the withdrawal threshold 30 and 180 min after injection, although this effect was not statistically significant” and the “effect on contralateral paw” value (CCI-exposed mice; 15 mg/kg, 90 min) was “significant effect (p = 0.0056)”. For the same molecule, the “effect on contralateral paw” value (CCI-exposed mice; 5 and 10 mg/kg, all time points) was “no effects of compound 12 (for doses 5 and 10 mg/kg) on tactile allodynia”, the “analgesic effect, von Frey test, ipsilateral paw” value (CCI-exposed mice; 90 and 180 min after i.p. injection) was “only at a dose of 10 mg/kg increased the withdrawal thresholds” and the “analgesic effect, von Frey test, ipsilateral paw” value (CCI-exposed mice; 30 min after i.p. injection, 5, 10, 15 mg/kg, day 14 after CCI) was “significant analgesic effects 30 min after injection of 5 (p < 0.0001) and 10 mg/kg (p = 0.0201)”. For the same molecule, the Ki [3] was greater than 10000 nM, the Papp at 5 h, 100 µM [4] was 12 ×10⁻⁶ cm/s and the “influence on motor coordination, time on rotarod” value (mice [5]) was “slightly affected motor coordination, but the effect was not statistically significant”.
